Experimental data published in patent publication US20250243219A1, “MACROCYCLIC COMPOUNDS AND USES THEREOF” (Cypralis Limited, priority 2022, published 2025).

Columns and labels:
[1] = Blood-brain barrier penetration, intravenous dosing; type: in vivo, rodents (mice or rats); settings: 3 mg/kg intravenous; for Brain concentration / Plasma concentration: at 30 min.
Description: Test compounds were administered to rodents (mice or rats) either orally, subcutaneously or intravenously. To determine blood or plasma concentrations blood samples were taken at different time points and analysed for the concentration of test compound by LC/MS. Brain concentrations were measured by sacrificing animals and LC/MS analysis of brain homogenate.
The results for Compounds (2), (19), (6) and (27) are summarised in Table 6 showing concentrations of the Compounds in blood plasma and the brain.

cyclophilin A = cyclophilin A (Homo sapiens (Human), UniProt P62937); experiment: Functional peptidyl prolyl isomerase (PPIase) spectrophotometric assay, cyclophilin A; type: biochemical; settings: first value of CypA/D cell
Chain of cyclophilin A (P62937 whole entry, species assumed): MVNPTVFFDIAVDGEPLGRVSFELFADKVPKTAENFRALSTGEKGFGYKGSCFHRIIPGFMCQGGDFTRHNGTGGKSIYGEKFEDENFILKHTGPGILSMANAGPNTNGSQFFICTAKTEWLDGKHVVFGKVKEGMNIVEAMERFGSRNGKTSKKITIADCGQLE
How it was run: (§1)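 Cuvette-based UV/Vis assay of PPIase-catalysed cis-to-trans isomerisation of a peptide substrate. First-order rate constants fitted to absorbance, background rate subtracted. Ki derived from rate constant versus inhibitor concentration, typically 6-point curves in duplicate.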

cyclophilin D = cyclophilin D (Homo sapiens (Human), UniProt P30405); experiment: Functional peptidyl prolyl isomerase (PPIase) spectrophotometric assay, cyclophilin D; type: biochemical; settings: second value of CypA/D cell; read-out: Ki CypD
Chain of cyclophilin D (P30405 30-207, species assumed): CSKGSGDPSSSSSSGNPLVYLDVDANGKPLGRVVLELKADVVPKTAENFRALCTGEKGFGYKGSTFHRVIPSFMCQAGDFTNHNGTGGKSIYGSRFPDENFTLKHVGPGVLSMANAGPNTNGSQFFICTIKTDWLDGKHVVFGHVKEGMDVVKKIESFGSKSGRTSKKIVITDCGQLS
How it was run: as §1

[2] = system: permeabilised HepG2 cells; experiment: Calcium retention capacity (CRC) assay in permeabilised HepG2 cells (MPTP opening); type: cell-based, human; set-up: CRC [10 μM]: unit not given here; settings: compound at 10 μM; for CRC [10 μM]: digitonin permeabilised HepG2 cells; for CRC [10 μM] (ratio vs CsA): normalised to cyclosporin A, value in brackets
How it was run: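 Digitonin-permeabilised HepG2 cells received trains of calcium pulses (typically 5 μM) monitored with Calcium Green-5N until buffering failed, marking permeability transition. Runs with and without compound; calcium retained at 10 μM compound expressed as ratio versus cyclosporin A positive control.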

SH-SY5Y cells = experiment: Thapsigargin treated cell death assay in SH-SY5Y cells; type: cell-based, human; settings: compound at 10 μM; positive = protection from cell death, negative = compound toxicity
How it was run: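 SH-SY5Y neuroblastoma cells given compound (typically 1, 3 and 10 μM, triplicate) 30 min before thapsigargin, with cyclosporin A (3 and 10 μM) as positive control. Cell death read kinetically over 24 h by CellTox Green DNA-binding fluorescence; values are % recovery at 10 μM, usually at 8 h, positive meaning protection.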

| Blood-brain barrier passage [1] | Brain concentration [1] | Plasma concentration [1] | Ki (cyclophilin A) | Ki (cyclophilin D) | SMILES | CRC [10 μM] [2] | CRC [10 μM] (ratio vs CsA) [2] | SYSY [10 μM] % recovery (SH-SY5Y cells) |
| --- | --- | --- | --- | --- | --- | --- | --- | --- |
| passed the blood-brain barrier | 0.285 µg/mL | 1.382 µg/mL |  |  | C[C@@H]1NC(=O)C(CCc2ccccc2)OC(=O)C(C)(C)/C=C/c2ccc3ccc(nc3c2)N(C)NC(=O)[C@@H]2CCCN(N2)C1=O (single isomer, unassigned) [(27)] |  |  |  |
| passed the blood-brain barrier | 0.116 µg/mL | 0.074 µg/mL | 0.023 µM | 0.15 µM | CC(C)[C@@H]1OC(=O)C2(/C=C/c3ccc4ccc(nc4c3)N(C)N(C)C(=O)[C@@H]3CCCN(N3)C(=O)[C@H](C)NC1=O)COCOC2 [(19)] | 30 | 0.77 |  |
| passed the blood-brain barrier | 0.197 µg/mL | 1.216 µg/mL | > 10 µM | > 0.01 µM | CC(C)[C@@H]1OC(=O)C(C)(C)C/C=C/c2ccc3ccc(nc3c2)N(C)NC(=O)[C@@H]2CCCN(N2)C(=O)[C@H](C)NC1=O [Compound (6)] |  |  |  |
|  |  |  | 0.014 µM | 0.021 µM | CC(C)[C@@H]1OC(=O)C(C)(C)/C=C/c2ccc3ccc(nc3c2)N(C)NC(=O)[C@@H]2CCCN(N2)C(=O)[C@H](CCC(=O)N2CCC(O)CC2)NC1=O [Compound (72)] | 20 | 0.80 | 43% |
|  |  |  | 0.011 µM | 0.042 µM | CC(C)[C@@H]1OC(=O)C(C)(C)/C=C/c2ccc3ccc(nc3c2)N(C)NC(=O)[C@@H]2CCCN(N2)C(=O)[C@H](CC2CCN(C)CC2)NC1=O [Compound (73)] | 15 | 0.75 | 43% |
|  |  |  | 0.0056 µM | 0.0063 µM | CC(C)[C@@H]1OC(=O)C(C)(C)/C=C/c2ccc3ccc(nc3c2)N(C)NC(=O)[C@@H]2CCCN(N2)C(=O)[C@H](Cc2ccccc2)NC1=O [Compound (76)] | 33.9 | 0.97 | 27.6% |
|  |  |  | 0.0089 µM | 0.028 µM | CC(C)[C@@H]1OC(=O)C(C)(C)/C=C/c2ccc3ccc(nc3c2)N(C)NC(=O)[C@@H]2CCCN(N2)C(=O)[C@H](Cc2ccc(CN(C)C)cc2)NC1=O [Compound (79)] | 28.33 | 0.85 | 1.8% |
|  |  |  | 0.004 µM | 0.022 µM | CC(C)[C@@H]1OC(=O)C(C)(C)/C=C/c2ccc3ccc(nc3c2)N(C)NC(=O)[C@@H]2CCCN(N2)C(=O)[C@H](C2CC2)NC1=O [Compound (80)] | 25 | 1.00 | 29.2% |
|  |  |  | 0.0097 µM | 0.0094 µM | C[C@@H]1NC(=O)[C@H](Cc2ccccc2Cl)OC(=O)C(C)(C)/C=C/c2ccc3ccc(nc3c2)N(C)NC(=O)[C@@H]2CCCN(N2)C1=O [Compound (81)] | 20 | 0.67 | 44% |
